Structures are written as SMILES.

Broadly, the melting point is the temperature, or range, at which the solid turns liquid. With `O=C(O)c1cccc(-c2cccc(Oc3ccc(Cl)c(Cl)c3)n2)c1`, the melting point lay in the range of 230 to 231 °C.

`COc1cccc(CCC(C(=O)c2ccc(O)cc2)c2ccccc2)c1` (configuration not stated) returned a melting point of 125 to 129 °C.

In the case of `CCc1c(-c2ccc(OCc3ccccc3)cc2)c2c(COCCCCCCCN3CCCCC3)cc3c(OCc4ccccc4)ccc1n32`, the melting point lay within 86 to 90 °C.

In turn, `O=C(O)CCCCN(C(=O)c1ccc(Cl)cc1)c1ccc2c(c1)CCC2` displayed a melting point of 132 to 134 °C.

The compound `Cn1ncnc1COc1nn2c(-c3ccc(F)cc3)nnc2cc1-c1ccsc1` registered a melting point of 268 to 269 °C.

In turn, `Clc1csc2c(Cl)cccc12` yielded a melting point of 100 to 102 °C.

As for `COc1cc(CCNC(=O)N(C)O)ccc1OCc1ccccc1`, the melting point is 109 to 111 °C.

Compound `CCCC(=O)c1cnc2c(OC)cccc2c1Nc1c(C)cc2c(c1C)OCO2` returned a melting point of 150 to 152 °C.

`Cc1ccc(S(=O)(=O)N(NC=O)c2ccc(NC(=S)Oc3ccccc3)cc2)cc1` gave a melting point of 195 to 196 °C.

The compound `CCCCc1nc[nH]c(=O)c1Cc1ccc(-c2ccccc2C(=O)O)cc1` returned a melting point of 197 to 200 °C.

`OC1(c2cccn2Cc2ccccc2F)CCN(CCc2ccccc2)CC1` showed a melting point of 130 to 131 °C.

As for `Fc1c(Br)ccc2c1OC(c1ccccc1)(c1ccccc1)O2`, the melting point is 61.5 to 63 °C.

The compound `COc1cccc(Nc2cccc3c2C(=O)N(C2CCC(=O)NC2=O)C3=O)c1` (configuration not stated) registered a melting point of 210 to 212 °C.

As to `CC(=O)SCC(CC(C)C)C(=O)NC(C)C(=O)O` (configuration not stated), the melting point was in the range of 157 to 167 °C.

For `COc1ccccc1-n1c(=O)[nH]c2c(C(N)=O)nc(-c3cccc(C(F)(F)F)c3)nc21`, the melting point was in the range of 271 to 275 °C.

Compound `CN(C)S(=O)(=O)n1cc(-c2ccc(Cl)cc2Cl)nc1C(N)=S` registered a melting point of 184 to 187 °C.

`COc1ccc(-c2ccc(C(=O)Nc3ccc4cc(CN5CCCC5)cnc4c3C)c(F)c2)cc1` returned a melting point of 164 to 166 °C.

`CCCCCCCCCCCCCCc1ccc(N(CC(=O)O)CC(=O)O)cc1`: the melting point was 160 to 165 °C.

Compound `CCC(C)(C)C(=O)NNc1cc(NC(=O)CC(C)(C)C)cc(NC(=O)CC(C)(C)C)c1` returned a melting point of 332 to 334 °C.

The compound `CC(=O)Nc1ccc2c(c1)OCO2` yielded a melting point of 138 to 139 °C.

`N#CN=C(Nc1cccnc1)NC(NC(=O)c1ccc(Cl)cc1)C1CC1` (configuration not stated): the melting point lay in the range of 137 to 139 °C.

As for `CCCCCC(O)C1C(=O)NC(C(=O)SCCNC(C)=O)(C(O)C2C=CCCC2)C1(C)O` (configuration not stated), the melting point is 80 °C.

Compound `NC(=O)Nc1ccccc1CCc1n[nH]c2c1c(=O)n(-c1ccccc1)c1ncccc21` gave a melting point of 300 to 305 °C.

In the case of `CC(=O)O[C@H]1CS[C@H](COC(=O)c2ccccc2)O1` (relative stereo), the melting point is 67 to 68 °C.

For `CN(Cc1ccccc1)c1cc(Oc2cccc(C(F)(F)F)c2)nc(C(=O)O)c1`, the melting point lay in the range of 80 to 82 °C.

In turn, `Cc1nn(-c2c(Cl)cc(C(F)(F)F)cc2Cl)c(N)c1C#C[Si](C)(C)C` returned a melting point of 121 to 123 °C.

`CCN1C(=O)C(C)(C)C(=O)N(C)c2cc(CN(CCc3cccnc3)S(=O)(=O)c3ccccc3)ccc21` gave a melting point of 143 to 146 °C.

As for `O=[N+]([O-])c1cc(C(F)(F)F)ccc1C1(O)CC=NO1` (configuration not stated), the melting point fell in the range of 122 to 123 °C.

Consider `CCCn1c(=O)c2[nH]c(C(C)Cc3ccncc3)nc2n(CCC)c1=O` (configuration not stated), for which the melting point is 215 to 217 °C.

Turning to `Nc1ccc(OCc2ccccc2)c2cnsc12`, the melting point lay within 126 to 128 °C.

With `CCOC(=O)c1cnc(Nc2ccc(N(C)C)cc2)[nH]c1=O`, the melting point was 246 to 248 °C.

`C=C(C)C(=O)Oc1ccc(C(=O)c2ccccc2)cc1`: the melting point is 69.5 to 70.5 °C.

In turn, `NC(=O)c1c(N2CCN(Cc3ccccc3)CC2)nn2c(-c3ccncc3)ccnc12` showed a melting point of 205 to 206 °C.

The compound `CC(C)c1nc2cc(NC(=O)c3c(C(=O)N4CC(F)C4)cnn3C)ccn2n1` had a melting point of 226 to 227 °C.

`CCCN(CCC)CCCC1CCN(CCNC(=O)N2c3cc(C)ccc3C(=O)Nc3cccnc32)CC1` gave a melting point of 195 °C.

The compound `CSC(CC(=O)O)c1ccncc1` (configuration not stated) gave a melting point of 187 to 189 °C.

In turn, `O=C(O)CCc1sc(-c2ccccc2)nc1-c1ccc(Cl)cc1` returned a melting point of 142 to 143 °C.

`CCCNC(=O)C(C)NC(=O)C(NC(=O)OCc1ccccc1)C(Cc1ccccc1)C(=O)O` (configuration not stated) yielded a melting point of 169 to 171 °C.

`COc1ccc2cc(CN(C)C(=O)c3ccc(Oc4cc(Cl)cc(Cl)c4)o3)ccc2c1Br` displayed a melting point of 115 to 117 °C.

`CCNCCCN1c2ccccc2N(C)C(=O)c2c(C)cc(C)nc21` yielded a melting point of 101 to 103 °C.

On to `Cc1ccccc1C=C1CCc2c1nc1ccc(C(=O)O)cn1c2=O`, for which the melting point lay within 300 to 302 °C.

`N#Cc1ccc(-c2ccc(S(=O)(=O)N(CCO)CCO)cc2)[nH]c1=O`: the melting point is 226 to 228 °C.

In turn, `Cc1ccc(S(=O)(=O)NN=C2CCCC(=O)C2Cc2ccccc2)cc1` (configuration not stated) displayed a melting point of 172 to 173 °C.

`Nc1cc(Cl)c(S(N)(=O)=O)cc1N`: the melting point was found to be 216 °C.

For `CCCc1c(OCCCCCOc2ccc3oc(C(=O)O)cc3c2)ccc2c1OCCC2=O`, the melting point lay in the range of 192 to 195 °C.

In turn, `Cc1ccnc(C(=O)c2[nH]c3ccc(C(F)(F)F)cc3c2CC(=O)O)c1` came in with a melting point of 218 to 225 °C.

`COc1cc([N+](=O)[O-])c2nccc(C)c2c1OCCCCCCCCCc1ccccc1` gave a melting point of 56 to 56.5 °C.

With `CNC(=O)ON=C(C)SC(C)C(N)=O` (configuration not stated), the melting point lay in the range of 161 to 163 °C.

`Cc1oc(-c2ccco2)nc1COc1ccc(COc2nn(Cc3ccccc3)cc2C(=O)O)cn1` yielded a melting point of 151 to 152 °C.

`CCCCc1cc(NN)n2nccc2n1`: the melting point was 126 to 129 °C.

Turning to `O=[N+]([O-])c1ccc2ccccc2c1NCC12CCCN1CCC2`, the melting point was in the range of 88 to 89 °C.

As to `Nc1sc2c(c1C(=O)c1cc3ccccc3o1)CCCC2`, the melting point lay in the range of 86 to 89 °C.

Compound `CCCSc1sc(C(N)=O)c2c1-c1nn(C(C)=O)cc1CC2` came in with a melting point of 219 to 220 °C.

`Cc1c(-c2ccccn2)[nH]c2ncnc(Nc3cccc(Cl)c3)c12` came in with a melting point of 171 to 172 °C.

On to `COc1cccc(F)c1COC1(C(F)(F)F)CN(C)C(=O)Nc2ccc(Cl)cc21` (configuration not stated), for which the melting point was 172 to 174 °C.

Compound `Cc1cc(C)cc(Nc2ncc(-c3ccccc3)s2)c1` registered a melting point of 175 to 176 °C.

`CCN(CC)CCNC(=O)c1nc(Cl)c(NCCN(CC)CC)nc1OC` yielded a melting point of 112 °C.

Take `CCCCNC(=S)N1CCN(c2cnccn2)CC1`: the melting point is 97.5 to 98.5 °C.

`CC(=O)C(C)(C)Cc1cc(C(C)(C)C)c(O)c(C(C)(C)C)c1` returned a melting point of 75 °C.

`COC(=O)C1=C(C(=O)OC)C(N)C2=C(c3cc4ccccc4s3)N=NC2=N1` (configuration not stated) returned a melting point of 218 to 220 °C.

For `CC1=C(Cl)C(c2ccccc2)C([N+](=O)[O-])=C(C)N1` (configuration not stated), the melting point turned out to be 192 °C.

`N#Cc1cnn2c1N(C(=O)CCl)CC=C2c1cccc(C(F)(F)F)c1` showed a melting point of 179 to 181 °C.

The values are drawn from a melting point compilation (Tetko et al.; mined from patent text by program, amines drawn as free bases though some values may be those of a salt).
